Data from patent US12116358B2, “Substituted indoles and methods of use thereof” (EPIZYME, INC., priority 2018, dated 2024).
Read-outs that look alike come from different tables or passages of the source.

Key:
SETD2(1434-1711) = biological target: T1, SETD2(1434-1711) (Homo sapiens, UniProt Q9BYW2); experiment: SETD2 (1434-1711) assay; assay type: biochemical; conditions: read-out: SETD2 (1434-1711)
T1 construct: SETD2 (1434-1711) Assay; catalogue N/A
T1 sequence (Q9BYW2 1434-1711): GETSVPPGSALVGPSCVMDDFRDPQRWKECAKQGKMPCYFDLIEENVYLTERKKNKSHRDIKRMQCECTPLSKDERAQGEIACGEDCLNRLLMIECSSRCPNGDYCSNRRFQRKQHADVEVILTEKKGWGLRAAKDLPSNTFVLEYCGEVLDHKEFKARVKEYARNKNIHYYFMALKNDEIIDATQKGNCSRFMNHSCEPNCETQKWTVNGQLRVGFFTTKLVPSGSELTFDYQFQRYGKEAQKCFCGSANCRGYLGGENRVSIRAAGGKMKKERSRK

KMS-34 cells = experiment: 14 day KMS-34 long term proliferation (LTP) assay; conditions: read-out: LTP Day 14 Abs IC50
Experimental: 14 Day KMS-34 Long Term Proliferation (LTP) Assay
Incubate plates for 96 hrs.
The final concentration is 1 μm.
To calculate growth for days 4, 7, 11, and 14:
1. Calculate the split factor for day 4 to 7, day 7 to 11, and day 11-14 The split factor is the viable cells/mL on Day X (either 4, 7, or 11) divided by the density the cells are being split back to.
2. For growth of cells from day 4 to 7, multiply the day 7 viable cells/mL density by the split factor from day 4.
4. For growth of cells from Day 11 to 14, multiply the Day 14 viable cells/mL density by the days 4, 7, and 11 split factors.
5. Plot growth on semi-log chart (viable cells/mL on Y axis, in log, and days on X axis).
From 5 mM to 0.25 μm. […] Mix well by pipetting up and down.

H3K36me3 in A549 cells = experiment: In-Cell Western (ICW) assay of SETD2 inhibitors (A549 assay); assay type: cell-based, human; conditions: A549 cells, read-out: SETD2 A549
Method in brief: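 A549 cells seeded at 4,000/well onto compound and incubated 3 days at 37° C. Methanol-fixed cells stained overnight at 4° C with anti-H3K36me3 (1:1000), then IRDye 800CW secondary with DRAQ5 DNA counterstain. Plates read by Licor imaging at 700 and 800 channels.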

SMILES | IC50 (SETD2(1434-1711)) | IC50 (KMS-34 cells; KMS-34 cells, day 14) | IC50 (H3K36me3 in A549 cells) | IC50 (KMS-34 cells; Homo sapiens, KMS-34, 336 h) | IC50 (H3K36me3 in A549 cells; Homo sapiens)
Cc1ccc(F)c2cc(C(=O)Nc3cc(Cl)cc(N4CCC(N5CCOCC5)C4)c3)[nH]c12 (stereo not drawn) [compound 22] | 10 nM | 110 nM | 60 nM | – | –
CC(=O)N1CCN(c2cc(F)cc(NC(=O)c3cc4c(F)ccc(C)c4[nH]3)c2)CC1 [compound 7] | – | 60 nM | 40 nM | – | –
Cc1ccc(F)c2cc(C(=O)Nc3cccc(N4CCOC(CO)C4)c3)[nH]c12 (stereo not drawn) [compound 115] | 50 nM | 260 nM | 200 nM | – | –
CC(=O)N1CCN(c2cccc(NC(=O)c3cc4cccc(C5CC5)c4[nH]3)c2)CC1 [compound 509] | 22400 nM | – | – | 2600 nM | 15400 nM
Cc1ccc(F)c2cc(C(=O)Nc3cccc(N4CCOC4=O)c3)[nH]c12 [compound 66] | 30 nM | – | – | 420 nM | 200 nM
CC(=O)N1CCN(c2cc(Cl)cc(NC(=O)c3cc4c(F)ccc(C)c4[nH]3)c2)CC1 [compound 31] | 10 nM | 130 nM | 80 nM | – | –
CC(=O)N1CCN(c2cccc(NC(=O)c3cc4c(F)ccc(C)c4[nH]3)c2)CC1C (stereo not drawn) [compound 32] | 20 nM | 110 nM | 80 nM | – | –
CC(=O)N1CCN(C2CCCC(NC(=O)c3cc4c(F)ccc(C)c4[nH]3)C2)CC1 (stereo not drawn) [compound 359] | – | 7800 nM | > 2000 nM | – | –
CC(=O)N1CCN(C2CCCC(NC(=O)c3cc4c(F)ccc(C)c4[nH]3)C2)CC1 (stereo not drawn) [compound 373] | – | 10000 nM | > 2000 nM | – | –
Cc1ccc(F)c2cc(C(=O)Nc3cccc(-c4cncnc4)c3)[nH]c12 [compound 64] | 60 nM | 380 nM | 100 nM | – | –
Cc1ccc(F)c2cc(C(=O)Nc3cccc(N4CCC(N5CCOCC5)CC4)c3)[nH]c12 [compound 76] | 30 nM | 360 nM | 200 nM | – | –
CC(=O)N1CCN(c2cccc(NC(=O)c3cc4c(F)ccc(C)c4[nH]3)c2)CC1 [compound 34] | – | 250 nM | 80 nM | – | –
Cc1ccc(F)c2cc(C(=O)Nc3cccc4cnccc34)[nH]c12 [compound 134] | 60 nM | 800 nM | 300 nM | – | –
Cc1ccc(F)c2cc(C(=O)Nc3cc(F)cc(N4CCC(N5CCOCC5)C4)c3)[nH]c12 (stereo not drawn) [compound 11] | 6 nM | 90 nM | 40 nM | – | –
Cc1ccc(F)c2cc(C(=O)Nc3cccc(-n4ccnc4)c3)[nH]c12 [compound 221] | 100 nM | – | – | 930 nM | 500 nM
CC(=O)N1CCN(C2CCCC(NC(=O)c3cc4c(F)ccc(C)c4[nH]3)C2)CC1 (stereo not drawn) [compound 372] | – | 10000 nM | > 2000 nM | – | –
Cc1nnc(-c2cccc(NC(=O)c3cc4c(F)ccc(C)c4[nH]3)c2)s1 [compound 65] | 20 nM | 280 nM | 100 nM | – | –
Cc1ccc(F)c2cc(C(=O)Nc3cccc(-c4cnn(C)c4)c3)[nH]c12 [compound 151] | 80 nM | – | – | 580 nM | 300 nM
Cc1ccc(F)c2cc(C(=O)Nc3ccc4nc(NC5CCNCC5)ncc4c3)[nH]c12 [compound 416] | 40 nM | – | – | – | 3300 nM
Cc1cccc2cc(C(=O)NCc3ccccc3N3CCN(C)CC3)[nH]c12 [compound 554] | 8700 nM | – | > 25000 nM | – | –
Cc1ccc(F)c2cc(C(=O)Nc3cccc(-c4ccc(CO)cc4)c3)[nH]c12 [compound 346] | 100 nM | – | 1800 nM | – | –
Cc1ccc(F)c2cc(C(=O)Nc3cccc(N4CCC(N(CCO)CCO)CC4)c3)[nH]c12 [compound 227] | 30 nM | – | 500 nM | – | –
Cc1ccc(F)c2cc(C(=O)Nc3cccc(N4CCOC(CCO)C4)c3)[nH]c12 (stereo not drawn) [compound 50] | 60 nM | – | 100 nM | – | –
Cc1ccc(F)c2cc(C(=O)NC3CCCc4cnccc43)[nH]c12 (stereo not drawn) [compound 403] | 2500 nM | – | 2700 nM | – | –
Cc1ccc(F)c2cc(C(=O)Nc3cccc(N4CCN(C)CC4CO)c3)[nH]c12 (stereo not drawn) [compound 277] | 200 nM | – | – | – | 900 nM
